{"source": "patent EP0696280B1", "about": "“SUBSTITUTED PYRROLIDIN-3-YL-ALKYL-PIPERIDINES USEFUL AS TACHYKININ ANTAGONISTS” (MERRELL PHARMACEUTICALS INC., priority 1993, dated 1994)", "key": {"[1]": {"molecular_target": "T1, NK2 receptor (Bos taurus, UniProt P05363)", "T1 construct": "expressed in transfected cells; host or cells: SKLKB82#3 cells", "T1 sequence (P05363 1-384)": "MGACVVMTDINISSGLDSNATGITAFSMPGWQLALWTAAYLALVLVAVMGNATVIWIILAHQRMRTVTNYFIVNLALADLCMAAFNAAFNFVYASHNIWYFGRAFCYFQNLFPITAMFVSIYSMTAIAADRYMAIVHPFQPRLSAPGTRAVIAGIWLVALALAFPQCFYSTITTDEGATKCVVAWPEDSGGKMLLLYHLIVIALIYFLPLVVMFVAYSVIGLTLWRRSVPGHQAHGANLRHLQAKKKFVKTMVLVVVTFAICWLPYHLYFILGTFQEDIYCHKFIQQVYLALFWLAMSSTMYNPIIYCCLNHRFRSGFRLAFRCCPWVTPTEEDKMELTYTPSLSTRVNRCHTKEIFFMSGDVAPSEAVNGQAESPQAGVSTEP", "assay": "Antagonism of NK2 receptor mediated (NKA-induced) phosphatidylinositol turnover in SKLKB82#3 cells", "type": "cell-based", "conditions": "Schild analysis, NKA in SKLKB82#3 cells; mean (95% confidence limits), 2-3 experiments", "description": "(§1) Tachykinin-mediated inositol phosphate accumulation was measured in UCll or SKLKB82#3 cells in the presence and absence of NK1 or NK2 receptor antagonists, respectively. Tissues were incubated in Krebs-Henseleit buffer at 37°C with 95% O2-5% CO2 gassing. Tissues were then incubated with fresh buffer containing 100 µCi of myo-[2-^3H(N)] inositol at 37°C for 60 min with gentle gassing. After washing twice at room temperature in 5 ml buffer containing 10 mM LiCl, tissues were incubated for 30 min at room temperature with a buffer change at 15 min. Buffer was removed and Krebs-Henseleit buffer (containing 40 µg/ml bacitracin, 4 µg/ml each of leupeptin and chymostatin, 0.1% bovine serum albumin and 10 mM each of thiorphan and LiCl) added. After 15 min, SP was added to UCll cells or NKA to SKLKB82#3 cells at various concentrations to start the reaction. After incubation for 60 min at room temperature the reaction was terminated by addition of 930 µl chloroform: methanol (1:2 by volume) to each tube, followed by 310 µl chloroform and 310 µl doubly distilled water. Samples were vortexed, centrifuged, and 0.9 ml of the aqueous (top) phase removed and added to 2 ml ddH2O. The mixture was vortexed and loaded onto a 50% Bio-Rad AG 1-X8 (formate form, 100-200 mesh) exchange column (Bio-Rad Laboratories, Hercules, CA). The columns were washed, in order, with: 1) 10 ml doubly distilled water, 2) 5 ml of 5 mM disodium tetraborate/60 mM sodium formate, and 3) 5 ml of 1 M ammonium formate/0.1 M formic acid. The third elution was collected and 1 ml counted in 7 ml scintillation fluid. A 50 µl aliquot of the organic (bottom) phase was removed, dried in a scintillation vial and counted in 7 ml scintillation fluid.\n(§2) The ratio of DPM in the aqueous phase aliquot (total inositol phosphates) to the DPM in the 50 µl organic phase aliquot (total [^3H]inositol incorporated) was calculated for each sample. Data are expressed as a percent of agonist-induced accumulation of [^3H]-inositol phosphates over basal levels. The ratios in the presence of test compound and/or standards were compared to the ratios for control samples (i.e. no stimulating agonist). Dose-response graphs were constructed and the abilities of the test compounds to inhibit tachykinin-induced phosphatidylinositol turnover determined with the aid of a computer program. […] Data is expressed as percent stimulation of total inositol phosphate accumulation over basal levels and normalized to the maximum response produced by SP. […] Schild analysis is performed using dose response curves (such as those presented in Figures 1a and 1b) to obtain a value indicative of the strength of a competitive antagonist and is expressed as the pA2, which is the negative logarithm of the molar concentration of antagonist which reduces the effect of a dose of agonist to one-half of that expected at the dose of agonist. […]\n(§3) Values are mean (95% confidence limits) derived from Schild analysis of 2-3 experiments per compound per receptor."}, "[2]": {"molecular_target": "T2, NK1 receptor (Homo sapiens, UniProt P25103)", "T2 construct": "endogenous in cells; host or cells: UC11 cells", "T2 sequence (P25103 whole entry)": "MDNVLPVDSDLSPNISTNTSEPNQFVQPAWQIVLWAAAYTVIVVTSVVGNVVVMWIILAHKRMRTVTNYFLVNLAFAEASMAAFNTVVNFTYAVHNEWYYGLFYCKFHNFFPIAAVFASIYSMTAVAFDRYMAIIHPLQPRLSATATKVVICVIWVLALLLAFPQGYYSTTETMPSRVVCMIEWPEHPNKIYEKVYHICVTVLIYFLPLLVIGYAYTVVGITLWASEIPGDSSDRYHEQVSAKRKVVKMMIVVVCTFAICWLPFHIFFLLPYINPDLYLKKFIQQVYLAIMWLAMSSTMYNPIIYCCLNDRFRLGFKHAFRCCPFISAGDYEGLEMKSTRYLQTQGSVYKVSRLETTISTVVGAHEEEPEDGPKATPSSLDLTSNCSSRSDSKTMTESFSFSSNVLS", "assay": "Antagonism of NK1 receptor mediated (SP-induced) phosphatidylinositol turnover in UC11 cells", "type": "cell-based", "conditions": "Schild analysis, SP in UC11 cells; mean (95% confidence limits), 2-3 experiments", "description": "as §1, §2, §3"}}, "data": [{"smiles": "COc1cc(C(=O)N2CCC(CCN3CCC(C(N)=O)(c4ccccc4)CC3)(c3ccc(Cl)c(Cl)c3)C2)cc(OC)c1OC", "note": "(single isomer, unassigned; (+)) [Example 20, (+)-1-[2-[3-(3,4-dichloro-phenyl)-1-(3,4,5-trimethoxy-benzoyl)-pyrrolidin-3-yl]-ethyl]-4-phenyl-piperidine-4-carboxylic acid amide]", "values": [{"measurement": "NK-2 RECEPTOR -SLOPE", "setting": "[1]", "value": "1.00 (0.63-1.37)"}, {"measurement": "NK-1 RECEPTOR -SLOPE", "setting": "[2]", "value": "1.03 (0.78-1.28)"}]}]}
